Assay results published in article PMC12388506, “Preclinical Evaluation of 2-Aminobenzothiazole Derivatives: In Silico, In Vitro, and Preliminary In Vivo Studies as Diabetic Treatments and Their Complications” (Molecules, 2025).

Experiments:
[1] = target: T1, ALR2 enzyme (Homo sapiens, UniProt P15121); experiment: ALR2 activity assay kit (ab273276), inhibition; assay type: biochemical;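 on relative ALR2 inhibition: inhibition calculated from the rate of NADPH cofactor consumption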
T1 construct: purchased ab273276
Description: The obtained dose–response curve had concentrations of 10 μM, 5 μM, 500 nM, 50 nM, and 5 nM.

[2] = FRAP assay
Description: (§1) All synthesized compounds were evaluated at 30 μM, 50 μM, 70 μM, 90 μM, and 110 μM under two of the most widely used methods in research to directly measure the antioxidant and anti-radical intrinsic capacity, FRAP, and ABTS assay, which were validated by a dose–response curve of 5-ASA as a reference. In the same way, these tests were carried out in triplicate using an assay kit (from Pharmaceutical and Biotechnological Innovation-Services) according to the manufacturer’s instructions.

[3] = ABTS assay
Description: as §1

[4] = test system: male Wistar rat; experiment: Acute oral toxicity, Up and Down procedure (OECD 425); assay type: in vivo; set-up: Heart weight / IWA (initial weight of animals) / FWA (final weight of animals) / Spleen weight / Liver weight / Intestine weight / Stomach weight / Kidney weight: unit not given here; conditions: for FWA (final weight of animals): after 14 days; for Heart weight / Intestine weight / Kidney weight / Liver weight / Spleen weight / Stomach weight: necropsy; for toxicity category (OECD): maximum dose 1250 mg/Kg oral
Description: All synthesized compounds (8c, 8d, and 12d as a racemic mixture) were suspended in 2% Tween 80 in water and administered orally by an esophageal cannula following the “Up and Down” methodology. Nevertheless, compounds could not be solubilized in the desired volume to complete the highest dose (1750 mg/Kg), so the toxicity test was performed with a maximum dose of 1250 mg/Kg. Even so, the values obtained indicate that these compounds are classified within toxicity category 4 according to the guidelines established by the Organization for Economic Co-operation and Development (OECD).
The “Up and Down” procedure of OECD Guideline 425 was used to estimate the LD50 value of synthesized compounds. Briefly, a dose of 175 mg/Kg was administered to a male Wistar rat, which was monitored continuously for 48 h. As the animal survived, a second animal received a dose of 550 mg/Kg, and, as it survived, a third animal received an increasing dose of 1750 mg/Kg. Finally, two other rats were administered the same dose. All animals were kept under observation for 14 days, and 24 h later, they were taken to the humane endpoint for macroscopic examination of organs and tissues. Finally, the LD50 value of the compounds was estimated to determine their degree of toxicity and classified based on the GHS of Classification and Labeling of Chemicals.

[5] = target: T1, ALR2 enzyme; experiment: ALR2 activity assay kit (ab273276), inhibition; assay type: biochemical; conditions: Inhibitor concentration
[6] = Inhibitor concentration 5000 nm
[7] = Inhibitor concentration 10000 nm

Compound	relative ALR2 inhibition ([1]; Inhibitor concentration 5 nm)	relative ALR2 inhibition ([1]; Inhibitor concentration 50 nm)	relative ALR2 inhibition ([1]; Inhibitor concentration 500 nm)	relative ALR2 inhibition [1, 6]	Percentage reduction of ferric ion to ferrous ion (FRAP) ([2]; 30 µM)	Percentage reduction of ferric ion to ferrous ion (FRAP) ([2]; 50 µM)	Percentage reduction of ferric ion to ferrous ion (FRAP) ([2]; 70 µM)	Percentage reduction of ferric ion to ferrous ion (FRAP) ([2]; 90 µM)	Percentage reduction of radical cation ABTS ([3]; 30 µM)	Percentage reduction of radical cation ABTS ([3]; 50 µM)	Percentage reduction of radical cation ABTS ([3]; 70 µM)	Percentage reduction of radical cation ABTS ([3]; 90 µM)	Percentage reduction of radical cation ABTS ([3]; 110 µM)	FWA (final weight of animals) ([4]; 1250 mg/Kg oral, mean ± SEM)	Heart weight ([4]; 1250 mg/Kg oral, mean ± SEM)	Intestine weight ([4]; 1250 mg/Kg oral, mean ± SEM)	Kidney weight ([4]; 1250 mg/Kg oral, mean ± SEM)	Liver weight ([4]; 1250 mg/Kg oral, mean ± SEM)	Spleen weight ([4]; 1250 mg/Kg oral, mean ± SEM)	relative ALR2 inhibition [5]	further results
COC(=O)[C@@H](N/C(=N\c1nc2ccccc2s1)SC)c1ccccc1 [8c, Methyl (S,E)-2-(((benzo[d]thiazol-2-ylimino)(methylthio)methyl)amino)-2-phenylacetate]	82.945%	85.158%	68.371%	53.000%	13.2%	14.4%	15.5%	19.6%	-3.5%	-3.9%	-3.8%	-2.9%	-2.8%	204.37 ± 1.47	1.07 ± 0.17	30.20 ± 1.50	2.57 ± 0.27	18.87 ± 1.47	0.73 ± 0.03	90.000%	concentrations at which ALR2 was inhibited [1]: below 10 µM; concentration dependence of ALR2 inhibition (IC50 not calculable) ([1]; 10 μM to 5 nM): did not show a concentration-dependent response; Percentage reduction of ferric ion to ferrous ion (FRAP) ([2]; 110 µM): 20.2%; Stomach weight ([4]; 1250 mg/Kg oral, mean ± SEM): 1.57 ± 0.07; toxicity category (OECD) [4]: 4
CC(/C=C1\SC(=S)N(CC(=O)O)C1=O)=C\c1ccccc1 [Epa, epalrestat, reference compound]	5.000%	5.288%	12.513%	58.372%	–	–	–	–	–	–	–	–	–	–	–	–	–	–	–	3.000%	relative ALR2 inhibition [1, 7]: 100.000%
CNC(=O)C(Cc1ccccc1)N/C(=N\c1nc2ccccc2s1)SC (racemic) [12d, Methyl (RS, E)-N’-(benzo[d]thiazol-2-yl)-N-(1-(methylamino)-1-oxo-3-phenylpropan-2-yl)carbamimidothioate]	29.534%	32.532%	33.993%	48.448%	0.19%	0.20%	0.18%	0.20%	-3.4%	-3.7%	-2.3%	-3.1%	-1.9%	309.67 ± 4.67	1.23 ±0.13	29.10 ± 0.50	2.87 ± 0.067	19.33 ± 0.03	0.83 ± 0.03	32.814%	relative ALR2 inhibition [1, 7]: 86.455%; IWA (initial weight of animals) ([4]; 1250 mg/Kg oral, mean ± SEM): 208.47 ± 6.47; Stomach weight ([4]; 1250 mg/Kg oral, mean ± SEM): 1.53 ± 0.07; toxicity category (OECD) [4]: 4
